Test results from PMC11971306, “Enzymatic Birch reduction via hydrogen atom transfer at [4Fe-4S]-OH2 and [8Fe-9S] clusters” (Nature Communications, 2025).

Assays:
BzdNO [1] = target: T1, BzdNO (Azoarcus sp. CIB, UniProt Z9PSW1D6O9); test: X-ray crystallography, no ligand added; assay type: binding; details: weakly occupied, co-purified; partially CoA-free state
T1 construct: BzdN + BzdO heterodimer (catalytic dimer of class I benzoyl-CoA reductase, BZD type) without BzdPQ; C-terminal Strep-tag on BzdO; anaerobic purification; about 95 kDa theoretical, 107 kDa by SEC; BzdN to residue 376, BzdO to residue 442 (domain borders); with Benzoyl-CoA reductase subunit BzdN
T1 sequence (Z9PSW1D6O9 1-437): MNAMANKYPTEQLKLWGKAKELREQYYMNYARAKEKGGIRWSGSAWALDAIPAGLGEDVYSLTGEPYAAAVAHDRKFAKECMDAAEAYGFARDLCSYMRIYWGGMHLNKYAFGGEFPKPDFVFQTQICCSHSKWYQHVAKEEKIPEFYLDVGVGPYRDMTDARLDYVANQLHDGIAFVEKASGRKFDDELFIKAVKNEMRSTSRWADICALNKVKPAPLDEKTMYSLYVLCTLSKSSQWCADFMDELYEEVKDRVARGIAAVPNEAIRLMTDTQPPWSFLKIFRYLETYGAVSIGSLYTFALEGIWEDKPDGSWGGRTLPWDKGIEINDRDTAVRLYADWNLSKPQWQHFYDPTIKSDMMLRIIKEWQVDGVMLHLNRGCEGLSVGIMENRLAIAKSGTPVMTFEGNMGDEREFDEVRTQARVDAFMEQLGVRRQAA
T1 sequence (Z9U3P4NCS5 1-379 partner): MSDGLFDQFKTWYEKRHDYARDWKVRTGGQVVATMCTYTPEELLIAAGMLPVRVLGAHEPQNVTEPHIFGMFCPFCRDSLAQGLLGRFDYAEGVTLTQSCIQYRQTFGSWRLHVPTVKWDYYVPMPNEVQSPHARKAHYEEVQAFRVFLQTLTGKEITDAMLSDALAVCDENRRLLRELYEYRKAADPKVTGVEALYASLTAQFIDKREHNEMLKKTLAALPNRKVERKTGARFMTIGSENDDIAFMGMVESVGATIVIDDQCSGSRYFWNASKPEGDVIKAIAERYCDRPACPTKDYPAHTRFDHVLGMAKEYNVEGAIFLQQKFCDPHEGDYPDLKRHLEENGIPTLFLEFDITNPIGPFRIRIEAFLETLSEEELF

BzdNO [2] = target: T1, BzdNO; test: rearomatization of dienoyl-CoA to benzoyl-CoA, UPLC; assay type: biochemical; details: artificial electron acceptor 0.5 mM; 0.2 mM dienoyl-CoA, pH 8.8, 30 °C, anaerobic
BzdNO [3] = target: T1, BzdNO; test: X-ray crystallography, co-crystal; assay type: binding; details: 1.4 Å; 5 mM compound, pH 7.5, anaerobic; non-covalent; active site channel of BzdO in front of [4Fe-4S]-OH2 cluster
BzdNO [4] = target: T1, BzdNO; test: X-ray crystallography, co-crystal; also turnover in reverse reaction; assay type: binding; details: 5 mM compound, pH 7.5, anaerobic; non-covalent; same site as benzoyl-CoA; substrate of the reverse, viologen-dependent rearomatization

## CC(C)(COP(=O)(O)OP(=O)(O)OC[C@H]1O[C@@H](n2cnc3c(N)ncnc32)[C@H](O)[C@@H]1OP(=O)(O)O)[C@@H](O)C(=O)NCCC(=O)NCCS [CoA]
BzdNO [1]
  X-ray crystallography, no ligand added: appears to contain besides several solvent molecules a weakly occupied CoA ligand

## C[n+]1ccc(-c2cc[n+](C)cc2)cc1 [methyl viologen]
BzdNO [2]
  rearomatization of dienoyl-CoA to benzoyl-CoA, UPLC: methyl viologen-dependent rearomatization of dienoyl-CoA to BzCoA

## CC(C)(COP(=O)(O)OP(=O)(O)OC[C@H]1O[C@@H](n2cnc3c(N)ncnc32)[C@H](O)[C@@H]1OP(=O)(O)O)[C@@H](O)C(=O)NCCC(=O)NCCSC(=O)c1ccccc1 [benzoyl-CoA]
BzdNO [3]
  X-ray crystallography, co-crystal: determined in a BzCoA bound (pdb 8SO2), dienoyl-CoA bound (pdb 8S1T)

## CC(C)(COP(=O)(O)OP(=O)(O)OC[C@H]1O[C@@H](n2cnc3c(N)ncnc32)[C@H](O)[C@@H]1OP(=O)(O)O)[C@@H](O)C(=O)NCCC(=O)NCCSC(=O)C1=CCCC=C1 [dienoyl-CoA, cyclohexa-1,5-diene-1-carbonyl-CoA]
BzdNO [4]
  X-ray crystallography, co-crystal; also turnover in reverse reaction: BzdNO in complex with the product dienoyl-CoA reveals the identical binding mode as the substrate
